Key:
[1] = an = ratio of the nth substance listed; conditions: for surface tension liquid-gas: Ring tensiometer; for electrical conductivity / viscosity / mass density: 101 kPa, Liquid; for electrical conductivity: Alternating current cell with electrodes; for viscosity: Capillary tube (Ostwald / Ubbelohde) method; for mass density: Vibrating tube method
[2] = refractive index (Na D-line) (dimensionless); an = ratio of the nth substance listed; conditions: 101 kPa, Liquid, Standard Abbe refractometry

OCC(O)CO [glycerol] + O=C([O-])[O-].[K+].[K+]
Conditions | electrical conductivity, [1] [S/m] | mass density, [1] [kg/m3] | refractive index, [2] | surface tension liquid-gas, [1] [mN/m] | viscosity, [1] [mPa·s]
293.15 K, a1 = 4 | 0.0008 | 1477.9 | 1.4922 | 50.6 | 28104
293.15 K, a1 = 5 | 0.0034 | 1447.2 | 1.491 | 64.4 | 18018
293.15 K, a1 = 6 | 0.0052 | 1423.6 | 1.4897 | 69.5 | 5500
303.15 K, a1 = 4 | 0.003 | 1472 | 1.4906 | 46.1 | 10100
303.15 K, a1 = 5 | 0.0082 | 1441.4 | 1.4894 | 59.1 | 8899
303.15 K, a1 = 6 | 0.0112 | 1417.8 | 1.4882 | 66.8 | 3500
313.15 K, a1 = 4 | 0.0069 | 1466.1 | 1.4888 | 45.2 | 3330
313.15 K, a1 = 5 | 0.0154 | 1435.5 | 1.488 | 56.7 | 3440
313.15 K, a1 = 6 | 0.0247 | 1411.9 | 1.4866 | 65.6 | 1710
323.15 K, a1 = 4 | 0.0162 | 1460.2 | 1.4862 | 44.4 | 1400
323.15 K, a1 = 5 | 0.0371 | 1429.6 | 1.4853 | 55.3 | 1418
323.15 K, a1 = 6 | 0.0393 | 1405.9 | 1.4845 | 64 | 767
333.15 K, a1 = 4 | 0.0313 | 1454.1 | 1.4857 | 43.4 | 663
333.15 K, a1 = 5 | 0.076 | 1423.4 | 1.4839 | 54.7 | 646
333.15 K, a1 = 6 | 0.121 | 1399.8 | 1.4827 | 63 | 378
343.15 K, a1 = 4 | 0.0583 | 1448.1 | 1.4846 | 42.6 | 323
343.15 K, a1 = 5 | 0.139 | 1417.5 | 1.4818 | 53.7 | 323
343.15 K, a1 = 6 | 0.163 | 1393.8 | 1.4808 | 62.2 | 203
353.15 K, a1 = 4 | 0.204 | 1442.2 | 1.4839 | 41.6 | 200
353.15 K, a1 = 5 | 0.313 | 1411.4 | 1.4783 | 51.3 | 178
353.15 K, a1 = 6 | 0.341 | 1387.7 | 1.4789 | 61.5 | 115

O=C([O-])[O-].[K+].[K+] [potassium carbonate] + OCCO
Conditions | electrical conductivity, [1] [S/m] | mass density, [1] [kg/m3] | refractive index, [2] | surface tension liquid-gas, [1] [mN/m] | viscosity, [1] [mPa·s]
293.15 K, a2 = 6 | 0.22 | 1338.8 | 1.4598 | 28.4 | 227
293.15 K, a2 = 7 | 0.238 | 1314 | 1.4565 | 28.3 | 149
293.15 K, a2 = 8 | 0.231 | 1295.5 | 1.457 | 27.8 | 117
303.15 K, a2 = 6 | 0.34 | 1332.1 | 1.4576 | 27.8 | 120
303.15 K, a2 = 7 | 0.425 | 1307.3 | 1.4548 | 27.7 | 81
303.15 K, a2 = 8 | 0.365 | 1288.8 | 1.4556 | 27.3 | 66
313.15 K, a2 = 6 | 0.51 | 1325.3 | 1.455 | 27.3 | 69
313.15 K, a2 = 7 | 0.537 | 1300.6 | 1.4525 | 27.2 | 49
313.15 K, a2 = 8 | 0.531 | 1282.1 | 1.4536 | 26.7 | 40
323.15 K, a2 = 6 | 0.78 | 1318.5 | 1.4533 | 26.8 | 42
323.15 K, a2 = 7 | 0.801 | 1293.8 | 1.4507 | 26.7 | 31
323.15 K, a2 = 8 | 0.73 | 1275.3 | 1.4513 | 26.1 | 26
333.15 K, a2 = 6 | 1.17 | 1311.7 | 1.4519 | 26.1 | 28
333.15 K, a2 = 7 | 1.18 | 1287 | 1.449 | 26 | 21
333.15 K, a2 = 8 | 1.04 | 1268.5 | 1.4496 | 25.5 | 18
343.15 K, a2 = 6 | 1.51 | 1304.9 | 1.4485 | 25.5 | 20
343.15 K, a2 = 7 | 1.53 | 1280.1 | 1.4459 | 25.3 | 15
343.15 K, a2 = 8 | 1.4 | 1261.7 | 1.4469 | 24.8 | 13

Source: the NIST ThermoML archive (doi:10.1016/j.tca.2013.10.028)
